In ChEMBL document CHEMBL4823300, “Design, synthesis and anticancer activity of sulfenylated imidazo-fused heterocycles” (Bioorg Med Chem Lett, 2021):
Activity calls are given as the source filed them. The calls are words filed in the database; no cut-off is given here.

Key:
[1] = test system: MDA-MB-231; experiment: Anticancer activity against human MDA-MB-231 cells assessed as growth inhibition incubated for 48 hrs by MTT assay; type: functional, cell-based; conditions: MDA-MB-231, 48 h
[2] = test system: HepG2; experiment: Anticancer activity against human HepG2 cells assessed as growth inhibition incubated for 48 hrs by MTT assay; type: functional, cell-based; conditions: HepG2, 48 h
[3] = test system: HeLa; experiment: Anticancer activity against human HeLa cells assessed as growth inhibition incubated for 48 hrs by MTT assay; type: functional, cell-based
[4] = test system: A549; experiment: Anticancer activity against human A549 cells assessed as growth inhibition incubated for 48 hrs by MTT assay; type: functional, cell-based; conditions: A549, 48 h
[5] = test system: U-87 MG; experiment: Anticancer activity against human U-87 MG cells assessed as growth inhibition incubated for 48 hrs by MTT assay; type: functional, cell-based, U-87MG ATCC
[6] = test system: SK-MEL-28; experiment: Anticancer activity against human SK-MEL-28 cells assessed as growth inhibition incubated for 48 hrs by MTT assay; type: functional, cell-based; conditions: SK-MEL-28, 48 h
[7] = test system: DU-145; experiment: Anticancer activity against human DU-145 cells assessed as growth inhibition incubated for 48 hrs by MTT assay; type: functional, cell-based; conditions: DU-145, 48 h
[8] = test system: HEK293; experiment: Anticancer activity against human HEK293 cells assessed as growth inhibition incubated for 48 hrs by MTT assay; type: cell-based; conditions: HEK293, 48 h
[9] = test system: NIH3T3; experiment: Anticancer activity against mouse NIH3T3 cells assessed as growth inhibition incubated for 48 hrs by MTT assay; type: cell-based; conditions: NIH3T3, 48 h
[10] = test system: HepG2; experiment: Cell cycle arrest in human HepG2 cells assessed as accumulation at SubG1 phase at 5 uM (reference value: 7.13%); type: functional
[11] = test system: HepG2; experiment: Cell cycle arrest in human HepG2 cells assessed as accumulation at SubG1 phase at 10 uM (reference value: 7.13%); type: functional
[12] = test system: HepG2; experiment: Cell cycle arrest in human HepG2 cells assessed as accumulation at G0/G1 phase at 5 uM (reference value: 92.33%); type: functional
[13] = test system: HepG2; experiment: Cell cycle arrest in human HepG2 cells assessed as accumulation at G0/G1 phase at 10 uM (reference value: 92.33%); type: functional
[14] = test system: HepG2; experiment: Cell cycle arrest in human HepG2 cells assessed as accumulation at S phase at 5 uM (reference value: 4.66%); type: functional
[15] = test system: HepG2; experiment: Cell cycle arrest in human HepG2 cells assessed as accumulation at S phase at 10 uM (reference value: 4.66%); type: functional
[16] = test system: HepG2; experiment: Cell cycle arrest in human HepG2 cells assessed as accumulation at G2/M phase at 5 uM (reference value: 3.72%); type: functional
[17] = test system: HepG2; experiment: Cell cycle arrest in human HepG2 cells assessed as accumulation at G2/M phase at 10 uM (reference value: 3.72%); type: functional
[18] = test system: HepG2; experiment: Induction of apoptosis in human HepG2 cells assessed as nuclear condensation at 5 to 10 uM incubated for 48 hrs by Hoechst staining based assay relative to control; type: functional, cell-based; conditions: dose 5-10 µM
[19] = test system: HepG2; experiment: Induction of apoptosis in human HepG2 cells assessed as decrease in mitochondrial membrane potential at 5 to 10 uM incubated for 48 hrs by JC-1 staining based assay relative to control; type: functional, cell-based; conditions: dose 5-10 µM
[20] = test system: HepG2; experiment: Induction of apoptosis in human HepG2 cells assessed as live cells at 5 uM incubated for 48 hrs by annexin V-FITC/propidium iodide (AV/PI) dual staining assay (reference value: 91.01%); type: functional
[21] = test system: HepG2; experiment: Induction of apoptosis in human HepG2 cells assessed as early apoptotic cells at 5 uM incubated for 48 hrs by annexin V-FITC/propidium iodide (AV/PI) dual staining assay (reference value: 3.87%); type: functional
[22] = test system: HepG2; experiment: Induction of apoptosis in human HepG2 cells assessed as late apoptotic cells at 5 uM incubated for 48 hrs by annexin V-FITC/propidium iodide (AV/PI) dual staining assay (reference value: 4.07%); type: functional
[23] = test system: HepG2; experiment: Induction of apoptosis in human HepG2 cells assessed as necrotic cells at 5 uM incubated for 48 hrs by annexin V-FITC/propidium iodide (AV/PI) dual staining assay (reference value: 1.06%); type: functional
[24] = test system: HepG2; experiment: Induction of apoptosis in human HepG2 cells assessed as live cells at 10 uM incubated for 48 hrs by annexin V-FITC/propidium iodide (AV/PI) dual staining assay (reference value: 91.01%); type: functional
[25] = test system: HepG2; experiment: Induction of apoptosis in human HepG2 cells assessed as early apoptotic cells at 10 uM incubated for 48 hrs by annexin V-FITC/propidium iodide (AV/PI) dual staining assay (reference value: 3.87%); type: functional
[26] = test system: HepG2; experiment: Induction of apoptosis in human HepG2 cells assessed as late apoptotic cells at 10 uM incubated for 48 hrs by annexin V-FITC/propidium iodide (AV/PI) dual staining assay (reference value: 4.07%); type: functional
[27] = test system: HepG2; experiment: Induction of apoptosis in human HepG2 cells assessed as necrotic cells at 10 uM incubated for 48 hrs by annexin V-FITC/propidium iodide (AV/PI) dual staining assay (reference value: 1.06%); type: functional

- IC50 [1]: 69.3 µM
- IC50 [2]: 9.9 µM
- IC50 [3]: 33.1 µM
- IC50 [4]: 17.9 µM
- IC50 [5]: > 100 µM
- IC50 [6]: > 100 µM
- IC50 [7]: 60.6 µM
SMILES: c1ccc(Sc2c(-c3cccc4ccccc34)nc3ccccn23)cc1
- IC50 [8]: > 100 µM
- IC50 [9]: > 100 µM
- Activity [10]: 3.7%
- Activity [11]: 8.52%
- Activity [12]: 86.33%
- Activity [13]: 70.35%
- Activity [14]: 2.54%
- Activity [15]: 0.36%
- Activity [16]: 7.29%
- Activity [17]: 25.53%
- Activity [18]: Active
- Activity [19]: Active
- Activity [20]: 77.51%
- Activity [21]: 10.32%
- Activity [22]: 11.9%
- Activity [23]: 0.26%
- Activity [24]: 55.27%
- Activity [25]: 25.45%
- Activity [26]: 18.94%
- Activity [27]: 0.34%
